Assay results: patent US20240041042A1, “1-(PYRIDYL)-5-AZINYLPYRAZOLE DERIVATIVES, AND THEIR USE FOR CONTROL OF UNDESIRED PLANT GROWTH” (Bayer Aktiengesellschaft, priority 2020, published 2024)

What was measured:
Assay type in all cases: in vivo
[1] = tested on: Digitaria sanguinalis (DIGSA); assay: Pre-emergence herbicidal action against DIGSA
Description: Seeds of monocotyledonous and dicotyledonous weed plants and crop plants are placed in plastic or organic planting pots and covered with soil. The compounds of the invention, formulated in the form of wettable powders (WP) or as emulsion concentrates (EC), are then applied to the surface of the covering soil as aqueous suspension or emulsion with addition of 0.5% additive at a water application rate equivalent to 600 l/ha. After the treatment, the pots are placed in a greenhouse and kept under good growth conditions for the trial plants. After about 3 weeks, the effect of the preparations is scored visually in comparison with untreated controls as percentages. For example, 100% activity=the plants have died, 0% activity=like control plants.
Tables A1 to A13 below show the effects of selected compounds of the general formula (I) on various harmful plants and at an application rate corresponding to 320 g/ha or lower, which were obtained by the experimental procedure mentioned above. The appendices “a”, “b” and “c” give differentiation by dosage used with otherwise the same harmful plants tested.

[2] = tested on: Alopecurus myosuroides (ALOMY); assay: Post-emergence herbicidal action against ALOMY; conditions: visual rating about 3 weeks after treatment vs untreated controls (100% = plants have died, 0% = like control plants)
Summary of the method: (§1)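 Values are percent visual activity (0% like control, 100% plants dead) after about 3 weeks in the greenhouse. Treatment: post-emergence spray at one-leaf stage, 600 l/ha spray volume, 0.5% additive, doses 320 g/ha or lower.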

Viola tricolor (VIOTR) [3] = assay: Pre-emergence herbicidal action against VIOTR
Summary of the method: (§2)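 Herbicide applied to soil before seedling emergence, at 600 l/ha spray volume with 0.5% additive and rates up to 320 g/ha. Evaluation: visual percentage effect, about 3 weeks later, greenhouse-grown pots compared with untreated ones.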

Setaria viridis (SETVI) [4] = assay: Pre-emergence herbicidal action against SETVI
Summary of the method: as §2

[5] = tested on: Verconica persica (VERPE); assay: Pre-emergence herbicidal action against VERPE; conditions: dosage 320 g/ha
Summary of the method: as §2

[6] = tested on: Matricaria inodora (MATIN); assay: Pre-emergence herbicidal action against MATIN
Summary of the method: as §2

[7] = tested on: Alopecurus myosuroides (ALOMY); assay: Pre-emergence herbicidal action against ALOMY; conditions: scored visually after about 3 weeks, 100% = plants have died
Summary of the method: as §2

[8] = tested on: Echinochloa crus-galli (ECHCG); assay: Post-emergence herbicidal action against ECHCG
Summary of the method: as §1

Viola tricolor (VIOTR) [9] = assay: Post-emergence herbicidal action against VIOTR
Summary of the method: as §1

Avena fatua (AVEFA) [10] = assay: Post-emergence herbicidal action against AVEFA; conditions: visual rating about 3 weeks after treatment
Summary of the method: as §1

[11] = tested on: Abutilon theophrasti (ABUTH); assay: Post-emergence herbicidal action against ABUTH; conditions: visual rating about 3 weeks after treatment vs untreated controls (100% = plants have died, 0% = like control plants)
Summary of the method: as §1

[12] = tested on: Verconica persica (VERPE); assay: Post-emergence herbicidal action against VERPE
Summary of the method: as §1

Setaria viridis (SETVI) [13] = assay: Post-emergence herbicidal action against SETVI; conditions: dosage 320 g/ha
Summary of the method: as §1

[14] = tested on: Pharbitis purpurea (PHBPU); assay: Post-emergence herbicidal action against PHBPU
Summary of the method: as §1

Avena fatua (AVEFA) [15] = assay: Pre-emergence herbicidal action against AVEFA; conditions: 320 g/ha, visual scoring after about 3 weeks vs untreated controls
Summary of the method: as §2

[16] = tested on: Amaranthus retroflexus (AMARE); assay: Post-emergence herbicidal action against AMARE
Summary of the method: as §1

[17] = tested on: Matricaria inodora (MATIN); assay: Post-emergence herbicidal action against MATIN; conditions: dosage 320 g/ha
Summary of the method: as §1

[18] = tested on: Polygonum convolvulus (POLCO); assay: Pre-emergence herbicidal action against POLCO
Summary of the method: as §2

Lolium rigidum (LOLRI) [19] = assay: Post-emergence herbicidal action against LOLRI
Summary of the method: as §1

[20] = tested on: Echinochloa crus-galli (ECHCG); assay: Pre-emergence herbicidal action against ECHCG
Summary of the method: as §2

Lolium rigidum (LOLRI) [21] = assay: Pre-emergence herbicidal action against LOLRI
Summary of the method: as §2

[22] = tested on: Amaranthus retroflexus (AMARE); assay: Pre-emergence herbicidal action against AMARE; conditions: visual scoring after about 3 weeks vs untreated controls
Summary of the method: as §2

[23] = tested on: Digitaria sanguinalis (DIGSA); assay: Post-emergence herbicidal action against DIGSA; conditions: 80 g/ha, visual rating about 3 weeks after treatment
Summary of the method: as §1

Zea mays (ZEAMX) = conditions: for Post-emergence action against ZEAMX in % (crop plant compatibility): 20 g/ha, effect in comparison to untreated controls; for Post-emergence action against ZEAMX in %: crop plant compatibility, 80 g/ha, effect vs untreated controls
Summary of the method: (§3)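 Test crops were treated 2 to 3 weeks after sowing, once they reached one leaf, by spraying compound in water with 0.5% additive at 600 l/ha. Visual scoring compared them with untreated controls roughly 3 weeks on, and appendices a, b and c denote different doses.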

Oryza sativa (ORYSA) = conditions: crop plant compatibility, 20 g/ha, effect vs untreated controls
Summary of the method: as §3

[24] = 80 g/ha, visual scoring after about 3 weeks vs untreated controls
[25] = 80 g/ha, visual rating about 3 weeks after treatment vs untreated controls (100% = plants have died, 0% = like control plants)

CCOC(=O)COc1nn(-c2ccccn2)c(-c2ccnc(F)c2)c1Br [Example I-01, Ethyl {[4-bromo-5-(2-fluoropyridin-4-yl)-1-(pyridin-2-yl)-1H-pyrazol-3-yl]oxy}acetate]
Pre-emergence action against DIGSA in % [1, 24]: 80%
Pre-emergence action against DIGSA in % ([1]; dosage 320 g/ha): 100%
Post-emergence action against ALOMY in % ([2]; 80 g/ha): 100%
Post-emergence action against ALOMY in % ([2]; 320 g/ha): 100%
Pre-emergence action against VIOTR in % (Viola tricolor (VIOTR) [3]; 320 g/ha, Viola tricolor): 90%
Pre-emergence action against SETVI in % (Setaria viridis (SETVI) [4]; dosage 320 g/ha): 100%
Pre-emergence action against VERPE in % [5]: 90%
Pre-emergence action against MATIN in % ([6]; dosage 320 g/ha): 100%
Pre-emergence action against ALOMY ([7]; 320 g/ha): 100%
Post-emergence action against ECHCG in % ([8]; dosage 80 g/ha): 80%
Post-emergence action against ECHCG in % ([8]; dosage 320 g/ha): 90%
Post-emergence action against VIOTR in % (Viola tricolor (VIOTR) [9]; 80 g/ha): 90%
Post-emergence action against VIOTR in % (Viola tricolor (VIOTR) [9]; 320 g/ha): 100%
Post-emergence action against AVEFA in % (Avena fatua (AVEFA) [10]; 80 g/ha): 90%
Post-emergence action against AVEFA in % (Avena fatua (AVEFA) [10]; 320 g/ha): 100%
Post-emergence action against ABUTH in % ([11]; 320 g/ha): 80%
Post-emergence action against VERPE in % ([12]; 320 g/ha, VERPE): 90%
Post-emergence action against VERPE in % ([12]; dosage 80 g/ha): 80%
Post-emergence action against SETVI in % (Setaria viridis (SETVI) [13]): 80%
Post-emergence action against PHBPU in % ([14]; dosage 80 g/ha): 80%
Post-emergence action against PHBPU in % ([14]; dosage 320 g/ha): 80%
Pre-emergence action against AVEFA in % (Avena fatua (AVEFA) [15]): 80%
Post-emergence action against AMARE in % ([16]; 320 g/ha, visual rating about 3 weeks after treatment): 80%
Post-emergence action against MATIN in % [17]: 90%
Pre-emergence action against POLCO in % ([18]; dosage 320 g/ha): 90%
Post-emergence action against LOLRI in % (Lolium rigidum (LOLRI) [19]; dosage 80 g/ha): 80%
Post-emergence action against LOLRI in % (Lolium rigidum (LOLRI) [19]; dosage 320 g/ha): 90%
Pre-emergence action against ECHCG in % ([20]; dosage 320 g/ha): 90%
Pre-emergence action against LOLRI in % (Lolium rigidum (LOLRI) [21]; dosage 320 g/ha): 100%
Pre-emergence action against AMARE in % ([22]; 80 g/ha): 80%
Pre-emergence action against AMARE in % ([22]; 320 g/ha): 90%

CC(C)=NOC(=O)COc1nn(-c2ncccc2F)c(-c2ccc(F)nc2)c1Br [Example I-45]
Pre-emergence action against DIGSA in % [1, 24]: 100%
Post-emergence action against ALOMY in % ([2]; 80 g/ha): 90%
Pre-emergence action against VIOTR in % (Viola tricolor (VIOTR) [3]; dosage 80 g/ha): 90%
Pre-emergence action against MATIN in % ([6]; dosage 80 g/ha): 80%
Pre-emergence action against ALOMY ([7]; 80 g/ha): 90%
Post-emergence action against AVEFA in % (Avena fatua (AVEFA) [10]; 80 g/ha): 80%
Post-emergence action against ABUTH in % ([11]; 80 g/ha): 80%
Post-emergence action against VERPE in % ([12]; dosage 80 g/ha): 80%
Post-emergence action against DIGSA in % [23]: 90%
Post-emergence action against AMARE in % [16, 25]: 80%
Pre-emergence action against POLCO in % ([18]; dosage 80 g/ha): 90%
Post-emergence action against ZEAMX in % (crop plant compatibility) (Zea mays (ZEAMX)): 0%
Post-emergence action against ZEAMX in % (Zea mays (ZEAMX)): 10%
Post-emergence action against ORYSA in % (Oryza sativa (ORYSA)): 10%
Pre-emergence action against ECHCG in % ([20]; dosage 80 g/ha): 90%
Pre-emergence action against AMARE in % ([22]; 80 g/ha): 90%

O=C(COc1nn(-c2ncccc2F)c(-c2ccc(F)nc2)c1Br)OCc1ccccn1 [Example I-46]
Pre-emergence action against DIGSA in % [1, 24]: 100%
Pre-emergence action against DIGSA in % ([1]; dosage 320 g/ha): 100%
Post-emergence action against ALOMY in % ([2]; 80 g/ha): 90%
Pre-emergence action against VIOTR in % (Viola tricolor (VIOTR) [3]; 320 g/ha, Viola tricolor): 100%
Pre-emergence action against VIOTR in % (Viola tricolor (VIOTR) [3]; dosage 80 g/ha): 90%
Pre-emergence action against SETVI in % (Setaria viridis (SETVI) [4]; dosage 80 g/ha): 90%
Pre-emergence action against SETVI in % (Setaria viridis (SETVI) [4]; dosage 320 g/ha): 100%
Pre-emergence action against VERPE in % [5]: 100%
Pre-emergence action against MATIN in % ([6]; dosage 80 g/ha): 90%
Pre-emergence action against MATIN in % ([6]; dosage 320 g/ha): 90%
Pre-emergence action against ALOMY ([7]; 80 g/ha): 90%
Pre-emergence action against ALOMY ([7]; 320 g/ha): 100%
Post-emergence action against AVEFA in % (Avena fatua (AVEFA) [10]; 80 g/ha): 80%
Post-emergence action against VERPE in % ([12]; dosage 80 g/ha): 80%
Post-emergence action against DIGSA in % [23]: 90%
Post-emergence action against PHBPU in % ([14]; dosage 80 g/ha): 80%
Pre-emergence action against AVEFA in % (Avena fatua (AVEFA) [15]): 90%
Post-emergence action against AMARE in % [16, 25]: 90%
Pre-emergence action against POLCO in % ([18]; dosage 320 g/ha): 80%
Post-emergence action against ZEAMX in % (crop plant compatibility) (Zea mays (ZEAMX)): 0%
Post-emergence action against ZEAMX in % (Zea mays (ZEAMX)): 10%
Post-emergence action against ORYSA in % (Oryza sativa (ORYSA)): 10%
Pre-emergence action against ECHCG in % ([20]; dosage 320 g/ha): 90%
Pre-emergence action against LOLRI in % (Lolium rigidum (LOLRI) [21]; dosage 80 g/ha): 90%
Pre-emergence action against LOLRI in % (Lolium rigidum (LOLRI) [21]; dosage 320 g/ha): 100%
Pre-emergence action against AMARE in % ([22]; 80 g/ha): 100%
Pre-emergence action against AMARE in % ([22]; 320 g/ha): 100%
